Assay results as given in patent publication US7521418B2, “Use of a polyene macrolide antifungal agent in combination with a glycopeptide antibacterial agent” (Theravance, Inc., priority 2003, dated 2009).

How the values were obtained:
[1] = system: C. tropicalis ATCC 750; experiment: Checkerboard MIC assay, FICI; type: cell-based, Candida tropicalis; settings: combination with Compound 1; C. tropicalis ATCC 750
Source text: The following assay was used to determine the minimum inhibitory concentration (MIC) and fractional inhibitory concentration index (FICI) for combinations of an antifungal agent and a glycopeptide antibacterial agent. This assay and methods for calculating FICI are well known in the art. See, for example, Eliopoulos, E. G. and R. Moellering, Jr. “Antimicrobial Combinations” in Antibiotics in Laboratory Medicine, edited by V. Lorian, 4th Ed., Williams & Wilkins, Baltimore, MD, pp. 330-396 (1996); […] et al., Antimicrobial Agents and Chemotherapy 47(4):1416-1418 (2003); or […] et al., Antimicrobial Agents and Chemotherapy 46(10):3323-3326 (2002). Procedures, protocols, supplies and equipment used in this assay follow the recommendations approved and published by the National Committee for Clinical Laboratory Standards (NCCLS), Wayne, Pa. as described in NCCLS 2003, “Reference Method for Broth Dilution Antimicrobial Susceptibility Tests for Bacteria that Grow Aerobically; Approved Standard” (NCCLS document M7-A6); NCCLS 2002, “Reference Method for Broth Dilution Antifungal Susceptibility Tests of Filamentous Fungi that Grow Aerobically; Approved Standard” (NCCLS document M38-A); and NCCLS 2002 “Reference Method for Broth Dilution Antifungal Susceptibility Tests of Yeast; Approved Standards-2nd Edition” (NCCLS document M27-A2). Using a checkerboard method, a 2-fold dilution 100× final concentration master plate was prepared using a 96-well U-shape microtiter plate and an appropriate solvent. In the “checkerboard” method, a microtiter plate is divided into “columns” in which each well in the column contains the same amount of an antifungal agent (Compound A) being diluted along the x-axis, and “rows” in which each well in the row contains the same amount of a glycopeptide antibacterial agent (Compound B) being diluted on the y-axis. Also included is a row (or column) for Compound A or B alone. The dilutions used in the checkerboard are exponential (by powers of two). The result is that each well in the microtiter plate contains a unique concentration of the two compounds being tested. […] After mixing, 100 μL of 2× drug combinations were distributed into 96-well microtiter plates. […] Compound A was not added to Column 12, so Column 12 contained only Compound B. Compound B was diluted from row A starting at 6,400 μg/mL down to row G (100 μg/mL). Wells in Row A contained a final concentration of 64 μg/mL of Compound B; Row B contained a final concentration of 32 μg/mL of Compound B; Row C contained a final concentration of 16 μg/mL of Compound B; etc. Compound B was not added to Row H, so Row H only contained Compound A. […] The MIC of the glycopeptide antibacterial agent determined from this experiment was used in FIC calculations. […] RPMI-1640 without sodium bicarbonate media (GIBCO-BRL, Carlsbad, Calif.), an enriched media formulated for mammalian cells, was used according to the NCCLS guidelines for yeast and filamentous fungi susceptibility testing. The medium was buffered with 0.165 M 3-[N-Morpholino]propanesulfonic acid (MOPS) supplemented with 20 g/L glucose and pH adjusted to 7.0 with hydrogen chloride. Sabouraud Dextrose Agar ([…] plates, and Potato Dextrose Agar (PDA) plates were purchased from Hardy Diagnostic (Santa Maria, Calif.). Yeast cultures were started from -80° C. frozen stock streaked on […] incubated at 35° C. under aerobic conditions for 24 h. The […] in the refrigerator for up to 2 weeks and used regularly as a starting culture. About 24 to 48 h before each assay was run, yeasts were streaked on SDA plates for isolated colonies. To prepare the inoculum, from one to four colonies were resuspended in 5 mL of saline, and vortexed for 15 sec. […] For most yeast and mold cultures, the optical density (OD) of the suspension was adjusted to 0.11 in saline to provide 0.4×10^6 CFU/mL. However, for Fusarium moniliforme and Pseudallescheria boydii the OD of the suspension was adjusted to OD=0.17 to provide 0.4×10^6 CFU/mL. […]

[2] = system: C. glabrata ATCC 200918; experiment: Checkerboard MIC assay, FICI; type: cell-based, Candida glabrata; settings: combination with Compound 1
Source text: The following assay was used to determine the minimum inhibitory concentration (MIC) and fractional inhibitory concentration index (FICI) for combinations of an antifungal agent and a glycopeptide antibacterial agent. This assay and methods for calculating FICI are well known in the art. See, for example, Eliopoulos, E. G. and R. Moellering, Jr. “Antimicrobial Combinations” in Antibiotics in Laboratory Medicine, edited by V. Lorian, 4th Ed., Williams & Wilkins, Baltimore, MD, pp. 330-396 (1996); […] et al., Antimicrobial Agents and Chemotherapy 47(4):1416-1418 (2003); or […] et al., Antimicrobial Agents and Chemotherapy 46(10):3323-3326 (2002). Procedures, protocols, supplies and equipment used in this assay follow the recommendations approved and published by the National Committee for Clinical Laboratory Standards (NCCLS), Wayne, Pa. as described in NCCLS 2003, “Reference Method for Broth Dilution Antimicrobial Susceptibility Tests for Bacteria that Grow Aerobically; Approved Standard” (NCCLS document M7-A6); NCCLS 2002, “Reference Method for Broth Dilution Antifungal Susceptibility Tests of Filamentous Fungi that Grow Aerobically; Approved Standard” (NCCLS document M38-A); and NCCLS 2002 “Reference Method for Broth Dilution Antifungal Susceptibility Tests of Yeast; Approved Standards-2nd Edition” (NCCLS document M27-A2). Using a checkerboard method, a 2-fold dilution 100× final concentration master plate was prepared using a 96-well U-shape microtiter plate and an appropriate solvent. In the “checkerboard” method, a microtiter plate is divided into “columns” in which each well in the column contains the same amount of an antifungal agent (Compound A) being diluted along the x-axis, and “rows” in which each well in the row contains the same amount of a glycopeptide antibacterial agent (Compound B) being diluted on the y-axis. Also included is a row (or column) for Compound A or B alone. The dilutions used in the checkerboard are exponential (by powers of two). The result is that each well in the microtiter plate contains a unique concentration of the two compounds being tested. […] After mixing, 100 μL of 2× drug combinations were distributed into 96-well microtiter plates. […] Compound A was not added to Column 12, so Column 12 contained only Compound B. Compound B was diluted from row A starting at 6,400 μg/mL down to row G (100 μg/mL). Wells in Row A contained a final concentration of 64 μg/mL of Compound B; Row B contained a final concentration of 32 μg/mL of Compound B; Row C contained a final concentration of 16 μg/mL of Compound B; etc. Compound B was not added to Row H, so Row H only contained Compound A. […] The MIC of the glycopeptide antibacterial agent determined from this experiment was used in FIC calculations. […]

C[C@@H]1[C@H](O)[C@@H](C)/C=C/C=C/C=C/C=C/C=C/C=C/C=C/[C@H](O[C@@H]2O[C@H](C)[C@@H](O)[C@H](N)[C@@H]2O)C[C@@H]2O[C@](O)(C[C@@H](O)C[C@@H](O)[C@H](O)CC[C@@H](O)C[C@@H](O)CC(=O)O[C@H]1C)C[C@H](O)[C@H]2C(=O)O [Amphotericin B]
FICI [1]: 0.27 | FICI [2]: 0.19

C[C@@H]1[C@H](O)[C@@H](C)/C=C/C=C/CC/C=C/C=C/C=C/C=C/C(O[C@H]2O[C@H](C)[C@@H](O)[C@H](N)[C@@H]2O)CC2O[C@](O)(CC(O)C(O)CCC(O)CC(O)CC(O)CC(=O)O[C@H]1C)CC(O)C2C(=O)O (stereo partly shown) [Nystatin]
FICI [1]: 0.31 | FICI [2]: 0.31
